Measurements reported in paper PMC7188728, “A phase I study investigation of metabolism, and disposition of [^14C]-anlotinib after an oral administration in patients with advanced refractory solid tumors” (Cancer Chemotherapy and Pharmacology, 2020).

Assay: Metabolite radio-profiling (LC-RAM, LC-MS/MS) of plasma, urine and feces
Type: in vivo, human
Conditions: pooled plasma 2–96 h, subjects 03–06
Procedure: An equal volume of 2, 4, 8, 12, 24, and 96 h plasma sample was pooled by time-point across subject 03 ~ 06, to give six pooled plasma samples for metabolite profiling. An appropriate volume (3x, v/v) of acetonitrile was added to a portion of the pooled plasma sample, followed by vortexing ca. 2 min. After storage in a refrigerator for ca. 30 min, the mixture was centrifuged at ca. 10000 g at 4 °C for 10 min. The supernatant was then separated from the PES, which was suspended with water, followed by addition of methanol (2x, v/v) twice. The three extracts were combined and evaporated to dryness under a nitrogen stream by an N-Evap evaporator at room temperature. The residues were reconstituted with an appropriate volume of methanol:water (1:1, v/v) and centrifuged at ca. 10000 g at 4 ℃ for 10 min. The supernatant was subjected to HPLC radio-profiling.
Four pooled human urine samples (subject 03 ~ 06) were pooled from 0 to 432 h based on equal volume ratios from the individual patients across time intervals. In addition, three pooled urine samples (0–48, 48–120 and 360–432 h) (subjects 03–06) were prepared by pooling human urine samples across subjects and time points. Portion of the pooled urine sample was evaporated to a small volume under a nitrogen stream and extracted with methanol (3x, v/v) followed by centrifuged at ca. 10000 g at 4 ℃ for 10 min. The supernatant was reconstituted with an appropriate volume of methanol:water (1:1, v/v) and centrifuged at ca. 10000 g at 4 ℃ for 10 min. The supernatant was subjected to HPLC radio-profiling.
Four human fecal samples (0–432 h) were prepared by pooling feces from individual subjects (Subjects 03–06). In addition, three pooled human fecal samples (0–48, 48–120 and 360–432 h) were prepared by pooling feces samples across subjects and time points. The pooled fecal homogenate was extracted with methanol (3x, v/v) and the mixture was vortexed, and centrifuged at ca. 10000 g at 4 ℃ for 10 min. The supernatant was then separated from the PES, which was suspended with water, followed by addition of methanol twice. The three extracts were combined and evaporated to dryness under a nitrogen stream by an N-Evap evaporator at room temperature. The residues were reconstituted with an appropriate volume of methanol:water (1:1, v/v) and centrifuged at ca. 10000 g at 4 ℃ for 10 min prior to analysis.
HPLC coupled with radioactivity monitor (LC-RAM) was used to isolate and quantitate [^14C] anlotinib and its metabolites. The plasma and fecal extracts as well as urine supernatants were subjected to HPLC separation, fractionation, and eluent collection. The radioactivity in each fraction was monitored by solid scintillation counting using a Packard TopCount® NXT™ Microplate Counter. The radio-profiles were then reconstructed using ARC® Convert software. The peak area of each radioactivity peak/region was integrated using ARC® Evaluation software, and the percent distribution of each peak/region was calculated (%TRA for plasma or %Dose for urine and feces).
Metabolites were characterized and/or identified by LC–MS/MS in conjunction with on-line radioactivity detection. Structures of metabolites were proposed by interpretation of the mass spectral fragmentation pattern, as well as chromatographic behaviors and metabolic pathways.

Row | Drug-related component in human plasma (radio-profile) | SMILES
1 | major drug-related component | COc1cc2c(Oc3ccc4[nH]c(C(=O)O)cc4c3F)ccnc2cc1OCC1(N)CC1 [M30]
2 | detected | COc1cc2c(Oc3ccc4[nH]c(C)cc4c3F)ccnc2cc1O [M18]
3 | detected | COc1cc2c(Oc3ccc4[nH]c(C)cc4c3F)ccnc2cc1OCC1(O)CC1 [M28]
